Values quoted from earlier work, collected in patent US20100278915A1, “COMPOSITIONS COMPRISING AN ANTIHISTAMINE, A[…] DE[…] EXTENDED RELEASE FORMULATIONS” (Atley Pharmaceuticals, Inc., priority 2009, published 2010).
Counter-ions that a name gives are not always drawn.

Assays:
[1] = in vivo
[2] = after a single oral dose
[3] = within 24 hours of dosing

CN(C)CCC(c1ccc(Cl)cc1)c1ccccn1 (stereo not shown) [Chlorpheniramine, Chlorpheniramine maleate]
monodesmethyl and didesmethyl compounds excreted in the urine [1]: up to 26%
renal elimination, share of total excretion [1]: approximately 50%

COc1ccc2c3c1O[C@H]1C(=O)CC[C@H]4[C@@H](C2)N(C)CC[C@]314 [Hydrocodone, hydrocodone]
share of total excretion in the first 24 hours [2]: About 70%

CN[C@@H](C)[C@@H](O)c1ccccc1 [Pseudoephedrine, pseudoephedrine]
dose excreted unchanged in urine [3]: up to 90%
